Values of other authors in patent publication US20250205209A1, “Methods of Treating a Subject for Myalgic Encephalomyelitis/Chronic Fatigue Syndrome (ME/CFS) and Compositions for Use in The Same” (INCELLDX, INC., priority 2022, published 2025).

Experiments:
R5-tropic HIV-1 = settings: individuals with R5-tropic HIV-1; MOTIVATE 1 and MOTIVATE 2
[1] = HIV patients; >5 year follow-up of the MOTIVATE trials

In the case of `Cc1nnc(C(C)C)n1[C@@H]1C[C@H]2CC[C@@H](C1)N2CC[C@H](NC(=O)C1CCC(F)(F)CC1)c1ccccc1` [Maraviroc, 4,4-difluoro-N-[(1S)-3-[(1S,5R)-3-(3-methyl-5-propan-2-yl-1,2,4-triazol-4-yl)-8-azabicyclo[3.2.1]octan-8-yl]-1-phenylpropyl]cyclohexane-1-carboxamide], the HIV viral loads (R5-tropic HIV-1) is given as “lower levels of HIV viral loads” and the “instances of death and other health threats such as hepatic failure and myocardial infarctions” value [1] is given as “limited instances of death and other health threats”.
